Here are results for 23 molecules from US11319298B2 (Merck Sharp & Dohme Corp., priority 2016, dated 2022).

Usually EC50 stands for the midpoint of the concentration-response curve. Low readings indicate a more potent agent, high ones a less potent agent.

The target in the experiment is T1, human M4 muscarinic acetylcholine receptor (Homo sapiens, UniProt P08173).
T1 construct: expressed in transfected cells; host or cells: CHO-K1
T1 sequence (P08173 1-479): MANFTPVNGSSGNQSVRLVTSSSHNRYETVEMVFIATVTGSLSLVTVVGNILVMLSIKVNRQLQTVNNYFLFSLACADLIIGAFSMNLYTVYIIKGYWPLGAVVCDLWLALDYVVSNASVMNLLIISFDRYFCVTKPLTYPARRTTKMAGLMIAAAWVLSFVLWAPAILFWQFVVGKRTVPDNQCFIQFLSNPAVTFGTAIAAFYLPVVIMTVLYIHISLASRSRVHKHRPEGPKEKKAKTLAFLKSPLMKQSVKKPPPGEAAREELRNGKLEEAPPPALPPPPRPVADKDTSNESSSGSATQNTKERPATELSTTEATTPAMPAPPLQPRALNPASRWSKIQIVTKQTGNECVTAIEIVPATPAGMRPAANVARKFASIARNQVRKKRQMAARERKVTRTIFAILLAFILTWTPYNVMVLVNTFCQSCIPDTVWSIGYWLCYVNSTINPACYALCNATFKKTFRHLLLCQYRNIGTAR
In words: human FLIPR-based M4 PAM assay, CHO-K1 cells stably transfected with human M4 receptor and chimeric G-protein Gαqi5. The class given is cell-based. The settings on record: inflection point (IP) of dose response curve; acetylcholine added at 20% of maximum response; CHO-K1 human M4/Gαqi5, FLIPR Tetra. Put shortly:
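CHO-K1 cells were loaded with calcium dye at 37 °C for ~1 h. Fluorescence (ex 470–495/em 515–575 nm) was read for 4 min after test compound at increasing concentrations, then 3.5 min after acetylcholine at an EC20; sometimes a third addition at EC70 followed. The value is the inflection point of a 4-parameter logistic fit.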
In turn, `COc1ccc(OC2CCN(c3nnc(C(=O)NC4CCc5ncccc5C4)cc3C)CC2)cn1` (centres unmarked) [Example 163, 6-{4-[(6-methoxypyridin-3-yl)oxy]piperidin-1-yl}-5-methyl-N-(5,6,7,8-tetrahydroquinolin-6-yl)pyridazine-3-carboxamide] registered an EC50 of 325 nM.
`Cc1cc(C(=O)N[C@H]2CCc3cccnc3C2)nnc1N1CCC(Oc2cccc(C#N)c2)CC1` [Example 164A, (S)-6-[4-(3-cyanophenoxy)piperidin-1-yl]-5-methyl-N-(5,6,7,8-tetrahydroquinolin-7-yl)pyridazine-3-carboxamide] gave an EC50 of 434 nM.
With `Cc1cc(C(=O)N[C@@H]2CCc3cccnc3C2)nnc1N1CCC(Oc2cccc(C#N)c2)CC1` [Example 164B, (R)-6-[4-(3-cyanophenoxy)piperidin-1-yl]-5-methyl-N-(5,6,7,8-tetrahydroquinolin-7-yl)pyridazine-3-carboxamide], the EC50 worked out at 338 nM.
For `COc1ccc(OC2CCN(c3nnc(C(=O)N[C@@H]4CCc5ccccc5C4)cc3C)CC2)cn1` [Example 165A, (R)-6-{4-[(6-methoxypyridin-3-yl)oxy]piperidin-1-yl}-5-methyl-N-(1,2,3,4-tetrahydronaphthalen-2-yl)pyridazine-3-carboxamide] the value was 344 nM; for `COc1ccc(OC2CCN(c3nnc(C(=O)N[C@H]4CCc5ccccc5C4)cc3C)CC2)cn1` [Example 165B, (S)-6-{4-[(6-methoxypyridin-3-yl)oxy]piperidin-1-yl}-5-methyl-N-(1,2,3,4-tetrahydronapthalen-2-yl)pyridazine-3-carboxamide], 527 nM.
Regarding `COc1ccc(OC2CCN(c3nnc(C(=O)NCc4ccc5c(c4)OCO5)cc3C)CC2)cn1` [Example 166, N-(1,3-benzodioxol-5-ylmethyl)-6-{4-[(6-methoxypyridin-3-yl)oxy]piperidin-1-yl}-5-methylpyridazine-3-carboxamide], the EC50 turned out to be 400 nM.
The molecule `COc1ccc(OC2CCN(c3nnc(C(=O)NCc4ncn[nH]4)cc3C)CC2)cn1` [Example 167, 6-{4-[(6-methoxypyridin-3-yl)oxy]piperidin-1-yl}-5-methyl-N-(1H-1,2,4-triazol-5-ylmethyl)pyridazine-3-carboxamide] had an EC50 of 417 nM.
Regarding `COc1ccc(OC2CCN(c3nnc(C(=O)NC4CCc5cc(F)ccc5C4)cc3C)CC2)cn1` (centres unmarked) [Example 168, N-(6-fluoro-1,2,3,4-tetrahydronaphthalen-2-yl)-6-{4-[(6-methoxypyridin-3-yl)oxy]piperidin-1-yl}-5-methylpyridazine-3-carboxamide], the EC50 is 446 nM.
For `COc1ccc(OC2CCN(c3nnc(C(=O)NC4CCCC4)cc3C)CC2)cn1` [Example 169, N-cyclopentyl-6-{4-[(6-methoxypyridin-3-yl)oxy]piperidin-1-yl}-5-methylpyridazine-3-carboxamide] the value was 459 nM.
Regarding `COc1ccc(OC2CCN(c3nnc(C(=O)NC4CCc5cccnc54)cc3C)CC2)cn1` (centres unmarked) [Example 170, N-(6,7-dihdyro-5H-cyclopenta[b]pyridin-7-yl)-6-{4-[(6-methoxypyridin-3-yl)oxy]piperidin-1-yl}-5-methylpyridazine-3-carboxamide], the response was half-maximal at 465 nM (EC50).
`COc1ccc(OC2CCN(c3nnc(C(=O)NCc4ccc(C#N)cc4)cc3C)CC2)cn1` [Example 171, N-(4-cyanobenzyl)-6-{4-[(6-methoxypyridin-3-yl)oxy]piperidin-1-yl}-5-methylpyridazine-3-carboxamide] gave an EC50 of 471 nM.
For `Cc1cc(C(=O)NC2CCc3cnccc3C2)nnc1N1CCC(Oc2cccc(C#N)c2)CC1` (centres unmarked) [Example 172, 6-[4-(3-cyanophenoxy)piperidin-1-yl]-5-methyl-N-(5,6,7,8-tetrahydroisoquinolin-6-yl)pyridazine-3-carboxamide] the value was 508 nM; for `COc1ccc(OC2CCN(c3nnc(C(=O)N[C@H]4CCc5ccccc54)cc3C)CC2)cn1` [Example 173, N-[(1S)-2,3-dihydro-1H-inden-1-yl]-6-{4-[(6-methoxypyridin-3-yl)oxy]piperidin-1-yl}-5-methylpyridazine-3-carboxamide], 552 nM.
For `COc1ccc(OC2CCN(c3nnc(C(=O)NCc4ccc(S(C)(=O)=O)cc4)cc3C)CC2)cn1` [Example 174, 6-{4-[(6-methoxypyridin-3-yl)oxy]piperidin-1-yl}-5-methyl-N-[4-(methylsulfonyl)benzyl]pyridazine-3-carboxamide] the value was 563 nM; for `COc1ccc(OC2CCN(c3nnc(C(=O)NCc4ccc5c(c4)CNC5=O)cc3C)CC2)cn1` [Example 175, 6-{4-[(6-methoxypyridin-3-yl)oxy]piperidin-1-yl}-5-methyl-N-[(1-oxo-2,3-dihydro-1H-isoindol-5-yl)methyl]pyridazine-3-carboxamide], 573 nM; for `COc1ccc(OC2CCN(c3nnc(C(=O)NCc4ccc5c(c4)CCO5)cc3C)CC2)cn1` [Example 176, N-(2,3-dihydro-1-benzofuran-5-ylmethyl)-6-{4-[(6-methoxypyridin-3-yl)oxy]piperidin-1-yl}-5-methylpyridazine-3-carboxamide], 629 nM.
The molecule `COc1ccc(OC2CCN(c3nnc(C(=O)NC4Cc5ccccc5C4)cc3C)CC2)cn1` [Example 177, N-(2,3-dihydro-1H-inden-2-yl)-6-{4-[(6-methoxypyridin-3-yl)oxy]piperidin-1-yl}-5-methylpyridazine-3-carboxamide] gave an EC50 of 693 nM.
Molecule `COc1ccc(OC2CCN(c3nnc(C(=O)NCc4ccccc4C#N)cc3C)CC2)cn1` [Example 178, N-(2-cyanobenzyl)-6-{4-[(6-methoxypyridin-3-yl)oxy]piperidin-1-yl}-5-methylpyridazine-3-carboxamide] displayed an EC50 of 724 nM.
As to `COc1ccc(OC2CCN(c3nnc(C(=O)N[C@@H]4CCc5ccccc54)cc3C)CC2)cn1` [Example 179, N-[(1R)-2,3-dihydro-1H-inden-1-yl]-6-{4-[(6-methoxypyridin-3-yl)oxy]piperidin-1-yl}-5-methylpyridazine-3-carboxamide], the EC50 was determined as 793 nM.
Molecule `COc1ccc(OC2CCN(c3nnc(C(=O)NC4CCNC4=O)cc3C)CC2)cn1` (centres unmarked) [Example 180, 6-{4-[(6-methoxypyridin-3-yl)oxy]piperidin-1-yl}-5-methyl-N-(2-oxopyrrolidin-3-yl)pyridazine-3-carboxamide] yielded an EC50 of 808 nM.
For `COc1ccc(OC2CCN(c3nnc(C(=O)NCc4cc(F)c(OC)c(F)c4)cc3C)CC2)cn1` [Example 181, N-(3,5-difluoro-4-methoxybenzyl)-6-{4-[(6-methoxypyridin-3-yl)oxy]piperidin-1-yl}-5-methylpyridazine-3-carboxamide] the value was 871 nM.
Regarding `COc1ccc([C@H](C)NC(=O)c2cc(C)c(N3CCC(Oc4ccc(OC)nc4)CC3)nn2)cc1` [Example 182, N-[(1S)-1-(4-methoxyphenyl)ethyl]-6-{4-[(6-methoxypyridin-3-yl)oxy]piperidin-1-yl}-5-methylpyridazine-3-carboxamide], the EC50 came out at 893 nM.
The molecule `COc1ccc(OC2CCN(c3nnc(C(=O)NCc4ccc(F)cc4Cl)cc3C)CC2)cn1` [Example 183, N-(2-chloro-4-fluorobenzyl)-6-{4-[(6-methoxypyridin-3-yl)oxy]piperidin-1-yl}-5-methylpyridazine-3-carboxamide] came in with an EC50 of 915 nM.
